PubChem BioAssay (NCI)
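Tested at 5 concentrations; 48 h exposure; 96-well plates; endpoints linearly interpolated, else capped at highest concentration. TGI marks complete inhibition of growth.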

Experiments:
Assay in all cases: DTP human tumour cell line panel, 48 h
[1] = system: 786-0 renal
[2] = system: A498 renal
[3] = system: A549 NSCLC
[4] = system: ACHN renal
[5] = system: CAKI-1 renal
[6] = system: CCRF-CEM leukemia
[7] = system: COLO 205 colon
[8] = system: DU-145 prostate
[9] = system: EKVX NSCLC
[10] = system: HCC-2998 colon
[11] = system: HCT-116 colon
[12] = system: HCT-15 colon
[13] = system: HL-60(TB) leukemia
[14] = system: HOP-62 NSCLC
[15] = system: HS 578T breast
[16] = system: HT29 colon
[17] = system: IGROV1 ovarian
[18] = system: KM12 colon
[19] = system: LOX IMVI melanoma
[20] = system: M14 melanoma
[21] = system: MALME-3M melanoma
[22] = system: MCF7 breast
[23] = system: MDA-MB-231 breast
[24] = system: MDA-MB-435
[25] = system: MDA-N
[26] = system: MOLT-4 leukemia
[27] = system: NCI-H226 lung
[28] = system: NCI-H23 lung
[29] = system: NCI-H460 lung
[30] = system: NCI-H522 lung
[31] = system: NCI/ADR-RES ovarian
[32] = system: OVCAR-3 ovarian
[33] = system: OVCAR-4 ovarian
[34] = system: OVCAR-5 ovarian
[35] = system: OVCAR-8 ovarian
[36] = system: PC-3 prostate
[37] = system: RXF 393 renal
[38] = system: SF-268 CNS
[39] = system: SF-295 CNS
[40] = system: SF-539 CNS
[41] = system: SK-MEL-2 melanoma
[42] = system: SK-MEL-28 melanoma
[43] = system: SK-MEL-5 melanoma
[44] = system: SK-OV-3 ovarian
[45] = system: SN12C renal
[46] = system: SNB-19 CNS
[47] = system: SNB-75 CNS
[48] = system: SR leukemia
[49] = system: SW-620 colon
[50] = system: T-47D breast
[51] = system: TK-10 renal
[52] = system: UACC-257 melanoma
[53] = system: UACC-62 melanoma
[54] = system: BT-549 breast
[55] = system: HOP-92 NSCLC
[56] = system: K-562 leukemia
[57] = system: RPMI-8226 leukemia
[58] = system: U251 CNS
[59] = system: UO-31 renal

In the case of `Cc1cc(-c2ccc(Cl)cc2)c(C#N)c(=S)n1C1OC(CO)C(O)C(O)C1O` (stereo unspecified), the TGI [1] is reported as greater than 100 µM, the TGI [2] is reported as greater than 100 µM and the TGI [3] is reported as greater than 100 µM. The TGI [4] was greater than 100 µM, the TGI [5] was greater than 100 µM and the TGI [6] was greater than 100 µM. It also gave a TGI [7] greater than 100 µM, a TGI [8] greater than 100 µM and a TGI [9] greater than 100 µM. It also gave a TGI [10] greater than 100 µM, a TGI [11] greater than 100 µM and a TGI [12] greater than 100 µM. For the same molecule, the TGI [13] was greater than 100 µM, the TGI [14] was greater than 100 µM and the TGI [15] was greater than 100 µM. It also gave a TGI [16] greater than 100 µM, a TGI [17] greater than 100 µM and a TGI [18] greater than 100 µM. The TGI [19] was greater than 100 µM, the TGI [20] was greater than 100 µM and the TGI [21] was greater than 100 µM. It also gave a TGI [22] greater than 100 µM, a TGI [23] greater than 100 µM and a TGI [24] greater than 100 µM. For the same molecule, the TGI [25] was greater than 100 µM, the TGI [26] was greater than 100 µM and the TGI [27] was greater than 100 µM. It also gave a TGI [28] greater than 100 µM, a TGI [29] greater than 100 µM and a TGI [30] greater than 100 µM. It also gave a TGI [31] greater than 100 µM, a TGI [32] greater than 100 µM and a TGI [33] greater than 100 µM. It also gave a TGI [34] greater than 100 µM, a TGI [35] greater than 100 µM and a TGI [36] greater than 100 µM. It also gave a TGI [37] greater than 100 µM, a TGI [38] greater than 100 µM and a TGI [39] greater than 100 µM. The TGI [40] was greater than 100 µM, the TGI [41] was greater than 100 µM and the TGI [42] was greater than 100 µM. For the same molecule, the TGI [43] was greater than 100 µM, the TGI [44] was greater than 100 µM and the TGI [45] was greater than 100 µM. For the same molecule, the TGI [46] was greater than 100 µM, the TGI [47] was 78.7 µM and the TGI [48] was greater than 100 µM. It also gave a TGI [49] greater than 100 µM, a TGI [50] greater than 100 µM and a TGI [51] greater than 100 µM. The TGI [52] was greater than 100 µM and the TGI [53] was greater than 100 µM.

`Cc1ccccc1Nc1cn(CCOc2ccccc2)c(=O)n(CCOc2ccccc2)c1=O` was tested, and the TGI [1] was greater than 100 µM, the TGI [2] was greater than 100 µM and the TGI [3] was greater than 100 µM. It also gave a TGI [4] greater than 100 µM, a TGI [54] greater than 100 µM and a TGI [5] greater than 100 µM. For the same molecule, the TGI [6] was greater than 100 µM, the TGI [7] was greater than 100 µM and the TGI [8] was greater than 100 µM. It also gave a TGI [9] greater than 100 µM, a TGI [10] greater than 100 µM and a TGI [11] greater than 100 µM. It also gave a TGI [12] greater than 100 µM, a TGI [13] greater than 100 µM and a TGI [14] greater than 100 µM. For the same molecule, the TGI [55] was greater than 100 µM, the TGI [15] was greater than 100 µM and the TGI [16] was greater than 100 µM. It also gave a TGI [17] greater than 100 µM, a TGI [56] greater than 100 µM and a TGI [18] greater than 100 µM. The TGI [19] was greater than 100 µM, the TGI [20] was greater than 100 µM and the TGI [21] was 63.7 µM. For the same molecule, the TGI [22] was greater than 100 µM, the TGI [24] was greater than 100 µM and the TGI [25] was greater than 100 µM. It also gave a TGI [26] greater than 100 µM, a TGI [28] greater than 100 µM and a TGI [29] greater than 100 µM. It also gave a TGI [30] greater than 100 µM, a TGI [31] greater than 100 µM and a TGI [32] greater than 100 µM. The TGI [33] was greater than 100 µM, the TGI [34] was greater than 100 µM and the TGI [36] was greater than 100 µM. For the same molecule, the TGI [57] was greater than 100 µM, the TGI [37] was greater than 100 µM and the TGI [38] was greater than 100 µM. The TGI [39] was greater than 100 µM, the TGI [42] was greater than 100 µM and the TGI [43] was greater than 100 µM. It also gave a TGI [45] greater than 100 µM, a TGI [49] greater than 100 µM and a TGI [58] greater than 100 µM. The TGI [52] was greater than 100 µM, the TGI [53] was greater than 100 µM and the TGI [59] was greater than 100 µM.
